Experimental findings from ChEMBL document CHEMBL4138075, “Concise synthesis and antiproliferative activity evaluation of ellipticine quinone and its analogs” (Eur J Med Chem, 2017) are described below.

Structures are written as SMILES.

For one experiment, the system named is HCT-116. Kind of experiment: Antiproliferative activity against human HCT116 cells measured after 48 hrs by MTT assay. Type of experiment: functional, cell-based. To be noted: HCT-116, 48 h.
In a further experiment the test system is HL-60. Kind of experiment: Antiproliferative activity against human HL60 cells measured after 48 hrs by WST1 assay. Type of experiment: functional, cell-based. As to conditions: HL-60, 48 h.

`Cc1ccc2c3c([nH]c2c1)C(=O)c1ccncc1C3=O`: the concentration for half-maximal inhibition (IC50) in the experiment with HCT-116 was 5.79 µM; in the experiment with HL-60, above 10 µM.

For the compound `O=C1c2ccncc2C(=O)c2c1[nH]c1ccc(F)cc21`, the half-inhibitory concentration (IC50) turned out to be 1.13 µM in the experiment on HCT-116 and 4.5 µM in the experiment on HL-60.

In the case of `COc1ccc2c3c([nH]c2c1)C(=O)c1ccncc1C3=O`, the values for the half-maximal inhibitory concentration (IC50) with HCT-116 and with HL-60 were 3.14 µM and 9.01 µM, respectively.

In the case of `Cc1ccc2[nH]c3c(c2c1)C(=O)c1cnccc1C3=O`, the IC50 with HCT-116 was 0.849 µM; in the experiment with HL-60, 4.27 µM.

Take `CC[C@@]1(O)C(=O)OCc2c1cc1n(c2=O)Cc2cc3ccccc3nc2-1` [CAMPTOTHECIN]: the half-inhibitory concentration (IC50) in the experiment with HCT-116 was determined as 0.159 µM; in the experiment on HL-60, 0.019 µM.

With `O=C1c2ccncc2C(=O)c2c1[nH]c1cc([N+](=O)[O-])ccc21`, the IC50 in the experiment on HCT-116 was 1.25 µM; in the experiment on HL-60, 4.43 µM.

On to `O=C1c2ccncc2C(=O)c2c1[nH]c1ccccc21`, for which the results for the IC50 with HCT-116 and in the experiment on HL-60 were 0.877 µM and 3.29 µM, respectively.

Take `COc1cc2[nH]c3c(c2cc1OC)C(=O)c1cnccc1C3=O`: the half-maximal inhibitory concentration (IC50) in the experiment on HCT-116 worked out at 3.72 µM; in the experiment with HL-60, 7.49 µM.

Consider `O=C1c2ccncc2C(=O)c2c1[nH]c1ccc(Cl)cc21`, for which the values for the IC50 in the experiment on HCT-116 and in the experiment with HL-60 were 1.38 µM and 3.88 µM, respectively.

As for `O=C1c2ccncc2C(=O)c2c1[nH]c1ccc([N+](=O)[O-])cc21`, the IC50 in the experiment on HCT-116 came to 0.187 µM; in the experiment on HL-60, 1.35 µM.

In the case of `O=C1c2ccncc2C(=O)c2c1[nH]c1ccc(C(F)(F)F)cc21`, the half-maximal inhibitory concentration (IC50) is 1.64 µM in the experiment with HCT-116 and 5.08 µM with HL-60.

In the case of `O=C1c2ccncc2C(=O)c2c1[nH]c1cc(C(F)(F)F)ccc21`, the IC50 in the experiment with HCT-116 is 4.62 µM; with HL-60, above 10 µM.

As for `O=C1c2ccncc2C(=O)c2c1[nH]c1cc(Cl)ccc21`, the IC50 with HCT-116 is 4.07 µM; in the experiment with HL-60, above 10 µM.

For the compound `COc1ccc2[nH]c3c(c2c1)C(=O)c1cnccc1C3=O`, the IC50 was 5.43 µM in the experiment on HCT-116 and above 10 µM in the experiment with HL-60.

`O=C1c2ccncc2C(=O)c2c1[nH]c1cc(F)ccc21`: the half-inhibitory concentration (IC50) came out at 1.6 µM with HCT-116 and 4.5 µM with HL-60.
